Laboratory results from patent US20260144753A1, “MULTIVALENT IONIZABLE LIPID DELIVERY SYSTEMS” (Factor Bioscience Inc., priority 2023, published 2026).
“Also recorded” adds a separate entry of the source. Read-outs that look alike come from different tables or passages of the source.

Key:
THP-1 monocytes = experiment: Viability of THP-1 monocytes after transfection, Cell Titer Glo; format: cell-based, human
Protocol: Relative viability was determined using a Cell Titer Glo viability assay and calculating viability relative to untransfected cells.

[1] = system: THP-1 human monocyte cell line; experiment: THP-1 monocyte transfection efficiency, GFP mRNA lipoplexes and LNPs, flow cytometry; format: cell-based; conditions: for transfection efficiency in lipoplex screen (in words): Family D lipoplexes, lipid:mRNA weight ratio of 2:1, THP-1; for in vitro transfection efficiency, LNP form (in words): LNPs
Protocol: (§1) LNPs were formulated through bulk mixing using a molar ratio of 50:38.5:10:1.5 (ionizable lipid/cholesterol/DSPC/DMG-PEG2000) and a 0.067 weight ratio of mRNA to ionizable lipid. Lipoplexes were formulated at various weight ratios of lipid:mRNA, and mRNA loading efficiency was determined via gel electrophoresis.
To evaluate transfection efficiency and cytotoxicity, THP-1 monocytes and Jurkat T cells were transfected with lipoplexes and lipid nanoparticles.
Density plots are shown of GFP+ transfected cells from doses of 2000 ng RNA per 120,000 cells for each formulation.
These 5 lipids are all in the Family D with a spermine headgroup and bis 2-hexyldecanoate tails. Lipids are listed in order of increasing carbon spacer link length. Lipoplexes were created using a lipid:mRNA weight ratio of 2:1 for each formulation.
The measured diameter of the Compound XVI lipoplexes was 359 nm. Compound XVI also functioned effectively as a solid LNP when using a molar ratio of 50:38.5:10:1.5 (ionizable lipid/cholesterol/DSPC/DMG-PEG2000) and a 0.12 weight ratio of mRNA to ionizable lipid. […] The ability to efficiently target blood cells using lipid delivery systems opens the door to a variety of applications, including potent in vivo mRNA delivery and cell reprogramming. […]

[2] = Encapsulation efficiency of LNPs, RiboGreen assay; format: physicochemical; conditions: for average encapsulation efficiency (%): RiboGreen
Protocol: as §1, with “electrophoresis. […] Encapsulation efficiency of LNPs was measured using a RiboGreen assay.” for “electrophoresis.”

Jurkat T cells = experiment: Jurkat T cell transfection efficiency of lipoplex formulations, flow cytometry; format: cell-based; conditions: lipoplexes, 100 ng RNA per 100,000 cells, compared to other lipids in Family D
Protocol: To evaluate transfection efficiency and cytotoxicity, THP-1 monocytes and Jurkat T cells were transfected with lipoplexes and lipid nanoparticles. […] A screen of 4 lipoplex formulations was analyzed using flow cytometry for doses of 100 ng RNA per 100,000 cells.

[3] = Dynamic light scattering, hydrodynamic diameter of the nanoparticles; format: physicochemical
Protocol: […] Lipoplexes were formulated at various weight ratios of lipid:mRNA, and mRNA loading efficiency was determined via gel electrophoresis. […] Dynamic light scattering (DLS) was used to determine hydrodynamic diameter of the nanoparticles, graphed as number particle size distribution. Polydispersity index (PDI) was also measured.

[4] = Zeta potential of nanoparticle formulation; format: physicochemical; conditions: LNPs, at a pH of 7.0
HEKn cells = experiment: LNP transfection efficacy in HEKn cells, mean GFP fluorescence intensity; format: cell-based; conditions: increasing amounts of mRNA
Protocol: Experiments were conducted to characterize LNP transfection efficacy of Compound XXXV in HEKn cells. A performance comparison was run between control (ToRNAdo lipoplex) and test subject Compound XXXV LNP with increasing amounts of mRNA, with other variables held constant. […] Mean GFP fluorescence intensity was calculated using Operetta® Harmony software. […] An experiment was conducted to characterize lipoplex efficiency in Jurkat cells. A performance comparison was run between control (Lipofectamine 3000) and spermine bis hexyldecanoate ionizable lipid compounds with varying tether length (3-7). Lipid:mRNA weight ratios were optimized for each lipid as determined by gel electrophoresis (Compound XX (2:1), Compound XXVIII (2.5:1), Compound XIX (1:2), Compound XVI (2.5:1), Compound XXIV (1:1)). […] The bottom panels (“Neg.”) of FIG. 57 depict negative control experiments wherein no RNA was delivered.

rat dermal tissue = experiment: Intradermal injection of lipid-complexed GFP mRNA in rats; format: in vivo; conditions: 2000 ng GFP mRNA, 48 hours
Protocol: In this Example, in vivo experiments were carried out in rats to investigate the transfection and expression efficiency of RNA complexed with the lipids of the present disclosure.
2000 ng of DLinDHS-complexed GFP mRNA was administered to rats by intradermal injection. After 48 hours, the injection site was fixed and stained (anti-rabbit GFP).

CCCCCCCCC(CCCCCC)C(=O)OCCCCCN(CCCN)CCCCN(CCCN)CCCCCOC(=O)C(CCCCCC)CCCCCCCC (stereo not drawn) [Compound XIX]
toxicity, relative viability of THP-1 monocytes after transfection (in words) (THP-1 monocytes): greatest toxicity | transfection efficiency in lipoplex screen (in words) [1]: greatest transfection efficiency

CCCCCCCCC(CCCCCC)C(=O)OCCCCCCN(CCCN)CCCCN(CCCN)CCCCCCOC(=O)C(CCCCCC)CCCCCCCC (stereo not drawn) [Compound XVI, (butane-1,4-diylbis((3-aminopropyl)azanediyl))bis(hexane-6,1-diyl) bis(2-hexyldecanoate)]
encapsulation efficiency of LNPs (in words) [2]: near complete encapsulation efficiency; also recorded: greater encapsulation of mRNA | average encapsulation efficiency (%) [2]: 87.0% | transfection in the Jurkat T cell line (in words) (Jurkat T cells): greatest transfection | toxicity, viability of THP-1 monocytes after transfection (in words) (THP-1 monocytes): significantly greater toxicity than respective Compound XVI lipoplexes | measured diameter of the lipoplexes ([3]; lipoplexes): 359 nm | diameter of LNPs ([3]; solid LNP, molar ratio 50:38.5:10:1.5 (ionizable lipid/cholesterol/DSPC/DMG-PEG2000), 0.12 weight ratio of mRNA to ionizable lipid): 170 nm | transfection efficiency in lipoplex screen (in words) [1]: greatest transfection efficiency | in vitro transfection efficiency, LNP form (in words) ([1]; GFP mRNA, THP-1): greater in vitro transfection efficiency than the clinically used Dlin-MC3-DMA LNPs; also recorded: greater in vitro transfection efficiency of THP-1 monocytes than commercially-available controls | half-maximal effective concentration (EC50) ([1]; lipoplexes, GFP mRNA, THP-1): 147 ng RNA per 50,000 cells | in vitro transfection efficiency, lipoplex form (in words) ([1]; lipoplexes, GFP mRNA, THP-1): greatest transfection efficiency; also recorded: greater in vitro transfection efficiency of THP-1 monocytes than commercially-available controls | surface charge [4]: +3.6 mV

CCCCCCCCC(CCCCCC)C(=O)OCCCCCCN(CCCCN(CCCCCCOC(=O)C(CCCCCC)CCCCCCCC)CC(O)CN)CC(O)CN (stereo not drawn) [Compound XXXV, (butane-1,4-diylbis((3-amino-2-hydroxypropyl)azanediyl))bis(hexane-6,1-diyl) bis(2-hexyldecanoate)]
LNP transfection into HEKn cells, mean GFP fluorescence intensity (in words) (HEKn cells): successful transfection into HEKn cells with diminishing returns as mRNA dosage increased

CCCCC/C=C\C/C=C\CCCCCCCCC(CCCCCCCC/C=C\C/C=C\CCCCC)OC(=O)CCCN(C)C [DLin-MC3-DMA, reference compound]
average encapsulation efficiency (%) [2]: 61.7% | toxicity, viability of THP-1 monocytes after transfection (in words) (THP-1 monocytes; LNPs and lipoplexes (FIG. 10)): very little toxicity | in vitro transfection efficiency, LNP form (in words) ([1]; GFP mRNA, THP-1): low transfection efficiency

CCCCC/C=C\C/C=C\CCCCCCCCN(CCCCN(CCCCCCCC/C=C\C/C=C\CCCCC)CC(O)CN)CC(O)CN (stereo not drawn) [DLinDHS, N^1,N^4-dilinoleyl-N^1,N^4-di-(2-hydroxy-3-aminopropyl)-diaminobutane]
GFP reporter expression after intradermal injection (in words) (rat dermal tissue): localized expression in the dermal layer
